This data set deals with Rice Green Leaf Hoppers (Nephoteftix Virescens). Briefly: Activity against rice green leaf hoppers, foliar spray on rice plants. Type of data set: in vivo. The settings on record: 300 ppm; after 72 hours. The procedure:
Leaf hopper and plant hoppers adults used for bioassay were obtained from a colony maintained continuously under laboratory conditions. For testing purposes, the test compound was diluted in 300 ppm (wt compound:vol diluent) in a 1:1 mixture of acetone:water, plus 0.1% EL 620 surfactant.
Hopper activity was evaluated using the foliar spray technique. Pofted rice plants (2-3 week old, Variety TN-1) were cleaned and dried prior to application. All plants were treated inside the fume hood using DeVilbiss atomizer at 25 psi with a spray volume of 5 ml/plant. To ensure uniform spray distribution, plants were placed in a rotating flat form inside the fume hood. Treated plants were then placed inside the holding room and allowed to dry for 2 hours. Each plant was caged using Mylar cages (4 inches diameter×19 inches in height) and inoculated with 10 adults hoppers. All test plants were held under continuous light and a temperature of about 28° C. for duration of the assay. Percent mortality was observed after 72 hours.

Where only a bound is given, the exact number is not on record here.

By mortality is commonly meant the percentage killed. The low end stands for more survivors, the high end for fewer survivors.

`Cc1ccc(-c2ccc(S(=O)(=O)NCc3ccnc4ccccc34)cc2)c(Cl)c1` [I-32] displayed a mortality of at least 75%.

For the origin of these results see patent US20090029855A1, “Quinoline Derivatives and Their Use as Pesticides” (priority 2006, published 2009).
